Results from patent US10428055B2, “Substituted piperidines having GPR119 agonistic activity” (DONG-A ST CO., LTD., priority 2014, dated 2019).

Target: T1, Human GPR119 (Homo sapiens, UniProt Q8TDV5)
T1 construct: host or cells: HEK293 (ATCC)
T1 sequence (Q8TDV5 1-335): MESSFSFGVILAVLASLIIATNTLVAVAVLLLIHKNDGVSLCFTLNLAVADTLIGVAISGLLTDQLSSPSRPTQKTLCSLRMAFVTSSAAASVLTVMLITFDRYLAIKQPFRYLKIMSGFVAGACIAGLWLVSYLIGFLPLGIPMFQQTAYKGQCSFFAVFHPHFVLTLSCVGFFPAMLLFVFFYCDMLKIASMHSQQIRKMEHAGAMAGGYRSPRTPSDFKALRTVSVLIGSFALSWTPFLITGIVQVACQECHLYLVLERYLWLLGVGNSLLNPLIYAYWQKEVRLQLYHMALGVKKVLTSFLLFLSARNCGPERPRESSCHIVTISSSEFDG
Test: Human GPR119 activation assay (cAMP, HTRF)
Type: cell-based
Settings: 1 h, HEK293 cells transiently expressing human GPR119, relative to maximum effect of OEA, read-out: hGPR119 activation ability (cAMP assay) Relative Response % vs OEA; for Emax at 0.001 µM: 1 nM; for Emax at 0.01 µM: 10 nM
Text: <Experimental Example 1>Human GPR119 activation assay
Human GPR119 was temporarily expressed on cells, thereby quantifying the amount of cyclic adenosine 3′,5′-monophosphate (cAMP) increased upon activating GPR119 by the compound of the present invention, using the product from Cysbio, by a method of HTRF (homogeneous time resolved fluorescence), and such quantification was used to refer to efficacy on GPR119 activation.
Human GPR119 expression vector (Origene) was overexpressed in […] renal epithelial cells (HEK293) (ATCC), and the cells were stabilized for 48 hours. With a solution of 11.1 mM glucose, 0.1% bovine serum albumin, and 0.5 mM IBMX (3-isobutyl-1-methylxanthine) which is a phosphodiesterase inhibitor being added to a KRBH (Krebs-Ringer Bicarbonate HEPES; Hou ZQ. et al., Mol Cell Endocrinol, 2008(291):71-78) buffer, the cells were pre-treated for 10 minutes. Thereafter, the cells were treated with the same solution containing a drug for 60 minutes, then the supernatant was removed, and the increase in cAMP in cells was quantified using a Cysbio cAMP HiRange kit.
As to the maximum efficacy of compounds tested, multiple concentration assessment for the compounds of the present invention was carried out, thereby assessing the relative activation level (%) to the maximum effect of oleoylethanolamide (OEA), an endogenous ligand of GPR119.

Emax at 0.001 µM | Emax at 0.01 µM | SMILES
50.7% | 116% | CCc1cnc(N2CCC(CCCOc3cc(F)c(C4=NCCO4)c(F)c3)CC2)nc1 [Example 1, 2-(4-(3-(1-(5-ethylpyrimidin-2-yl)piperidin-4-yl)propoxy)-2,6-difluorophenyl)-4,5-dihydrooxazole]
34.8% | 113% | CCc1cnc(N2CCC(CCCOc3cc(F)c(C4=N[C@H](C)CO4)c(F)c3)CC2)nc1 [Example 2, (R)-2-(4-(3-(1-(5-ethylpyrimidin-2-yl)piperidin-4-yl)propoxy)-2,6-difluorophenyl)-4-methyl-4,5-dihydrooxazole]
192% | 47.8% | CCc1cnc(N2CCC(CCCOc3cc(F)c(C4=N[C@@H](C)CO4)c(F)c3)CC2)nc1 [Example 3, (S)-2-(4-(3-(1-(5-ethylpyrimidin-2-yl)piperidin-4-yl)propoxy)-2,6-difluorophenyl)-4-methyl-4,5-dihydrooxazole]
33.5% | 102% | CCc1cnc(N2CCC(CCCOc3cc(F)c(C4=NCC(C)(C)O4)c(F)c3)CC2)nc1 [Example 6, 2-(4-(3-(1-(5-ethylpyrimidin-2-yl)piperidin-4-yl)propoxy)-2,6-difluorophenyl)-5,5-dimethyl-4,5-dihydrooxazole]
144% | 393% | CCc1cnc(N2CCC(CCCOc3cc(F)c(C4=NC[C@@H](CO)O4)c(F)c3)CC2)nc1 [Example 8, (S)-(2-(4-(3-(1-(5-ethylpyrimidin-2-yl)piperidin-4-yl)propoxy)-2,6-difluorophenyl)-4,5-dihydrooxazol-5-yl)methanol]
97.1% | 241% | CC(C)Cc1nc(-c2cnc(N3CCC(CCCOc4cc(F)c(C5=NC[C@@H](C)O5)c(F)c4)CC3)nc2)no1 [Example 9, (R)-3-(2-(4-(3-(3,5-difluoro-4-(5-methyl-4,5-dihydrooxazol-2-yl)phenoxy)propyl)piperidin-1-yl)pyrimidin-5-yl)-5-isobuty-1,2,4-oxadiazole]
192% | 266% | CC(C)c1noc(N2CCC(CCCOc3cc(F)c(C4=N[C@H](C)CO4)c(F)c3)CC2)n1 [Example 10, (R)-5-(4-(3-(3,5-difluoro-4-(4-methyl-4,5-dihydrooxazol-2-yl)phenoxy)propyl)piperidin-1-yl)-3-isopropyl-1,2,4-oxadiazole]
96% | 131% | CCCc1nc(-c2c(F)cc(OCCCC3CCN(c4ncc(CC)cn4)CC3)cc2F)no1 [Example 14, 3-(4-(3-(1-(5-ethylpyrimidin-2-yl)piperidin-4-yl)propoxy)-2,6-difluorophenyl)-5-propyl-1,2,4-oxadiazole]
108% | 321% | CCc1cnc(N2CCC(CCCOc3cc(F)c(-c4noc(C(C)(C)C)n4)c(F)c3)CC2)nc1 [Example 16, 5-(tert-butyl)-3-(4-(3-(1-(5-ethylpyrimidin-2-yl)piperidin-4-yl)propoxy)-2,6-difluorophenyl)-1,2,4-oxadiazole]
116% | 216% | CCc1cnc(N2CCC(CCCOc3cc(F)c(-c4noc(CO)n4)c(F)c3)CC2)nc1 [Example 17, (3-(4-(3-(1-(5-ethylpyrimidin-2-yl)piperidin-4-yl)propoxy)-2,6-difluorophenyl)-1,2,4-oxadiazol-5-yl)methanol]
303% | 436% | CCc1cnc(N2CCC(CCCOc3cc(F)c(-c4noc(CCO)n4)c(F)c3)CC2)nc1 [Example 18, 2-(3-(4-(3-(1-(5-ethylpyrimidin-2-yl)piperidin-4-yl)propoxy)-2,6-difluorophenyl)-1,2,4-oxadiazol-5-yl)ethan-1-ol]
235% | 413% | CCc1cnc(N2CCC(CCCOc3cc(F)c(-c4noc(C[C@@H](C)O)n4)c(F)c3)CC2)nc1 [Example 20, (R)-1-(3-(4-(3-(1-(5-ethylpyrimidin-2-yl)piperidin-4-yl)propoxy)-2,6-difluorophenyl)-1,2,4-oxadiazol-5-yl) propan-2-ol]
160% | 336% | CCc1cnc(N2CCC(CCCOc3cc(F)c(-c4noc(C[C@H](C)O)n4)c(F)c3)CC2)nc1 [Example 21, (S)-1-(3-(4-(3-(1-(5-ethylpyrimidin-2-yl)piperidin-4-yl)propoxyl)-2,6-difluorophenyl)-1,2,4-oxadiazol-5-yl) propan-2-ol]
67.8% | 165% | COc1cnc(N2CCC(CCCOc3cc(F)c(-c4noc(C(C)C)n4)c(F)c3)CC2)nc1 [Example 26, 3-(2,6-difluoro-4-(3-(1-(5-methoxypyrimidin-2-yl)piperidin-4-yl)propoxy)phenyl)-5-isopropyl-1,2,4-oxadiazole]
9.4% | 123% | CC(C)Oc1cnc(N2CCC(CCCOc3cc(F)c(-c4noc(C(C)C)n4)c(F)c3)CC2)nc1 [Example 27, 3-(2,6-difluoro-4-(3-(1-(5-isopropoxypyrimidin-2-yl)piperidin-4-yl)propoxy)phenyl)-5-isopropyl-1,2,4-oxadiazole]
75.3% | 173% | CC(C)c1nc(-c2c(F)cc(OCCCC3CCN(c4ncc(Br)cn4)CC3)cc2F)no1 [Example 29, 3-(4-(3-(1-(5-bromopyrimidin-2-yl)piperidin-4-yl)propoxy)-2,6-difluorophenyl)-5-isopropyl-1,2,4-oxadiazole]
103% | 172% | Cc1nc(-c2c(F)cc(OCCCC3CCN(c4ncc(-c5noc(CC(C)C)n5)cn4)CC3)cc2F)no1 [Example 30, 3-(2,6-difluoro-4-(3-(1-(5-(5-isobutyl-1,2,4-oxadiazol-3-yl)pyrimidin-2-yl)piperidin-4-yl)propoxy)phenyl)-5-methyl-1,2,4-oxadiazole]
59.4% | 116% | CCc1nc(-c2c(F)cc(OCCCC3CCN(c4ncc(-c5noc(CC(C)C)n5)cn4)CC3)cc2F)no1 [Example 31, 3-(2,6-difluoro-4-(3-(1-(5-(5-isobutyl-1,2,4-oxadiazol-3-yl)pyrimidin-2-yl)piperidin-4-yl)propoxy)phenyl)-5-ethyl-1,2,4-oxadiazole]
201% | 288% | CC(C)Cc1nc(-c2cnc(N3CCC(CCCOc4cc(F)c(-c5noc(C(C)C)n5)c(F)c4)CC3)nc2)no1 [Example 32, 3-(2,6-difluoro-4-(3-(1-(5-(5-isobutyl-1,2,4-oxadiazol-3-yl)pyrimidin-2-yl)piperidin-4-yl)propoxy)phenyl)-5-isopropyl-1,2,4-oxadiazole]
66.8% | 108% | CCC(C)c1nc(-c2c(F)cc(OCCCC3CCN(c4ncc(-c5noc(CC(C)C)n5)cn4)CC3)cc2F)no1 (stereo not drawn) [Example 33, 5-(sec-butyl)-3-(2,6-difluoro-4-(3-(1-(5-(5-isobutyl-1,2,4-oxadiazol-3-yl)pyrimidin-2-yl)piperidin-4-yl)propoxy)phenyl)-1,2,4-oxadiazole]
82.1% | 134% | COCc1nc(-c2c(F)cc(OCCCC3CCN(c4ncc(-c5noc(CC(C)C)n5)cn4)CC3)cc2F)no1 [Example 34, 3-(2,6-difluoro-4-(3-(1-(5-(5-isobutyl-1,2,4-oxadiazol-3-yl)pyrimidin-2-yl)piperidin-4-yl)propoxy)phenyl)-5-(methoxymethyl)-1,2,4-oxadiazole]
52.5% | 118% | CC[C@H](O)c1nc(-c2c(F)cc(OCCCC3CCN(c4ncc(-c5noc(CC(C)C)n5)cn4)CC3)cc2F)no1 [Example 35, (S)-1-(3-(2,6-difluoro-4-(3-(1-(5-(5-isobutyl-1,2,4-oxadiazol-3-yl)pyrimidin-2-yl)piperidin-4-yl)propoxy)phenyl)-1,2,4-oxadiazol-5-yl) propan-1-ol]
66.4% | 174% | CC(C)Cc1nc(-c2cnc(N3CCC(CCCOc4cc(F)c(-c5noc(C(C)(C)CO)n5)c(F)c4)CC3)nc2)no1 [Example 36, 2-(3-(2,6-difluoro-4-(3-(1-(5-(5-isobutyl-1,2,4-oxadiazol-3-yl)pyrimidin-2-yl)piperidin-4-yl)propoxy)phenyl)-1,2,4-oxadiazol-5-yl)-2-methylpropan-1-ol]
52.1% | 307% | CC(C)c1nc(-c2c(F)cc(OCCCC3CCN(c4cnc(Cl)cn4)CC3)cc2F)no1 [Example 37, 3-(4-(3-(1-(5-chloropyrazin-2-yl)piperidin-4-yl)propoxy)-2,6-difluorophenyl)-5-isopropyl-1,2,4-oxadiazole]
